Where a name gives a salt, the structure may show the parent alone. The source made the active and inactive calls.
Assays:
HeLa = test: ATP-based viability loss in HeLa cells – cell-based, CellTiter-Glo luminescence, cherry-pick samples, cytotoxicity control for MITF activator project, dose response (AID 540259); format: functional; conditions: Homo sapiens
[1] = biological target: Induced myeloid leukemia cell differentiation protein Mcl-1 (Homo sapiens, UniProt Q07820); format: functional
[2] = biological target: T1, High affinity choline transporter 1 (Homo sapiens, UniProt Q9GZV3); test: human choline transporter blockers, potency – cell-based, 5-point CRC, membrane potential dye, dose response (AID 504840); format: functional
T1 sequence (Q9GZV3 whole entry): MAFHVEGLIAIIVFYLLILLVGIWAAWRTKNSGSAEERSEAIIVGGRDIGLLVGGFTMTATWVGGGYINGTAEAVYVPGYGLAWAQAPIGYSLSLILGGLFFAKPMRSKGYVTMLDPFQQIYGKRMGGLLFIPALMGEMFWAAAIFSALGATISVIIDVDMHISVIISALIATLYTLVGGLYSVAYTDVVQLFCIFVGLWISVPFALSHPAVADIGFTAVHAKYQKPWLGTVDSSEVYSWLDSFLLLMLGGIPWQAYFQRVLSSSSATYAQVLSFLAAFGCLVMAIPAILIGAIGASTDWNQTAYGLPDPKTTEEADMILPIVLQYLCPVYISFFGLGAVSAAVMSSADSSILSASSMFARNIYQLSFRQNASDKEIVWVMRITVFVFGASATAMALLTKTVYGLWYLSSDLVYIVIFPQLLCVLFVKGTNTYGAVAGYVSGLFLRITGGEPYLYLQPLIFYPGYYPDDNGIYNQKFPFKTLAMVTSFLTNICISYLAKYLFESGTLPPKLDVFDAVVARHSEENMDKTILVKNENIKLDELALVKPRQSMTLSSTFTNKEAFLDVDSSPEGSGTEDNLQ

[3] = biological target: T2, Carboxy-terminal domain RNA polymerase II polypeptide A small phosphatase 1 (Homo sapiens, UniProt Q9GZU7); test: CTDSP1 inhibitors, concentration-response, biochemical, absorbance readout, ultra-high-throughput screen actives (AID 540297); format: functional
T2 sequence (Q9GZU7 whole entry): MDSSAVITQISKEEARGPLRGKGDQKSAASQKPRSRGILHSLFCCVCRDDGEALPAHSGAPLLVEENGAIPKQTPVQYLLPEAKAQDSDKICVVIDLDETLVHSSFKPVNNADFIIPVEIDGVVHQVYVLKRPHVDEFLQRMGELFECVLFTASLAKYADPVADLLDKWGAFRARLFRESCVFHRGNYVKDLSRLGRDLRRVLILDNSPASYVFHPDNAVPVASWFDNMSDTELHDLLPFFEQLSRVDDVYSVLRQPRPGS

[4] = Luminescence Cell-Based Dose Response HTS to Identify Activators of Luciferase Translation or Activity in H4 […] Cells. [Related pubchem assays: 1829 (Project Summary), 1814 (Primary HTS)]; format: functional
H4 = test: Luminescence Cell-Based Dose Response HTS to Identify Activators of 5'UTR Stem-Loop Driven Prion Protein mRNA Translation in H4 Neuroglioblastoma Cells. [Related pubchem assays: 1829 (Project Summary), 1814 (Primary HTS)]; format: functional; conditions: Homo sapiens
[5] = biological target: DNA dC->dU-editing enzyme APOBEC-3G (Homo sapiens, UniProt Q9HC16); test: Dose Response confirmation of small molecule APOBEC3G DNA Deaminase Inhibitors via a fluorescence-based single-stranded DNA deaminase assay. [Related pubchem assays (depositor defined):AID493012, AID493028]; format: functional
Fatty acid synthase [6] = biological target: T3, Fatty acid synthase (Homo sapiens, UniProt P49327); test: inhibition of human FAS-TE enzyme activity – biochemical, endpoint fluorescence intensity, uHTS hits, dose response (AID 624327); format: functional;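 further: fluorescence from hydrolysis of an O-methyl fluorescein acyl ester substrate by the enzyme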
Fatty acid synthase [7] = biological target: T3, Fatty acid synthase; test: inhibition of human FAS-TE enzyme activity – biochemical, kinetic fluorescence intensity, dose response (AID 624326); format: functional;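 further: rate of fluorescence rise from hydrolysis of a fluorogenic O-methyl fluorescein ester substrate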
Paired box protein Pax-8 = Paired box protein Pax-8 (Homo sapiens, UniProt Q06710); test: PAX8 transcriptional activity inhibition in RMG-I – RMG-I cells, luciferase, cherry-pick, dose response (AID 687027); format: functional, cell-based;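 further: luciferase reporter driven by Pax8 target thyroperoxidase promoter measured by SteadyGlo luminescence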
[8] = OVCAR8 cell viability loss – plate reader, dry powder samples, PAX8 project, dose response (AID 743197); format: functional, cell-based; conditions: OVCAR-8
[9] = general mammalian cell viability loss – inhibitor set, cherry-pick, set 2, cytotoxicity control for miR-122 modulator project, dose response (AID 720697); format: functional, cell-based
[10] = biological target: T4, Ubiquitin-conjugating enzyme E2 N (Homo sapiens, UniProt P61088); format: functional;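 further: Dose-response confirmation in a TR-FRET assay detecting UBC13-driven polyubiquitin chain formation, inhibition measured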
T4 sequence (P61088 whole entry): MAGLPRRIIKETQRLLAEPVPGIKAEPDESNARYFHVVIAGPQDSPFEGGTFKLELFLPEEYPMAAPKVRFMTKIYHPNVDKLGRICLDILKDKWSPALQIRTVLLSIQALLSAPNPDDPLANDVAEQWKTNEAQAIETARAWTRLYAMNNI

[11] = biological target: T5, DNA repair protein RAD52 homolog (Homo sapiens, UniProt P43351); format: functional, biochemical
T5 sequence (P43351 whole entry): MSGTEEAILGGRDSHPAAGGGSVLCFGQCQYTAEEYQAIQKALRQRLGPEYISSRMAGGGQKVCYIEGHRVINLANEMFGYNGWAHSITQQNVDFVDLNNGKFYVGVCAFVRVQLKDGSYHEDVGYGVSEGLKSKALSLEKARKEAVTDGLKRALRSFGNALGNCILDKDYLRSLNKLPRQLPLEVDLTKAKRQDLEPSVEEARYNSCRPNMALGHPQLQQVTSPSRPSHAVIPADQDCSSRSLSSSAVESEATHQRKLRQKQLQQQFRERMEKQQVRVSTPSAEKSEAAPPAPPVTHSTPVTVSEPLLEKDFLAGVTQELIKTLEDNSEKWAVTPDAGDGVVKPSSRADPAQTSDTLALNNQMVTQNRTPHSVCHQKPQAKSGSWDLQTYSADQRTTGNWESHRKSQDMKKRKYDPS

Chain of Induced myeloid leukemia cell differentiation protein Mcl-1 (Q07820 whole entry): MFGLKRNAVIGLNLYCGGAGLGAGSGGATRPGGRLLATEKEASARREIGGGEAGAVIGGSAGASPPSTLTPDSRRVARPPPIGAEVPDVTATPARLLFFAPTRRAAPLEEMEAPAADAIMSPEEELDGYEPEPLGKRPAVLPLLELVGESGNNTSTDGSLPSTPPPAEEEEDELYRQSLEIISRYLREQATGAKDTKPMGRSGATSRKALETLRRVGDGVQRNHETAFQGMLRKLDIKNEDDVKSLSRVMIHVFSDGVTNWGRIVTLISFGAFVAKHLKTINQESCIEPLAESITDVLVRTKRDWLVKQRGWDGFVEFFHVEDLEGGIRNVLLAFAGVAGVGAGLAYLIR
Chain of Paired box protein Pax-8 (Q06710 whole entry): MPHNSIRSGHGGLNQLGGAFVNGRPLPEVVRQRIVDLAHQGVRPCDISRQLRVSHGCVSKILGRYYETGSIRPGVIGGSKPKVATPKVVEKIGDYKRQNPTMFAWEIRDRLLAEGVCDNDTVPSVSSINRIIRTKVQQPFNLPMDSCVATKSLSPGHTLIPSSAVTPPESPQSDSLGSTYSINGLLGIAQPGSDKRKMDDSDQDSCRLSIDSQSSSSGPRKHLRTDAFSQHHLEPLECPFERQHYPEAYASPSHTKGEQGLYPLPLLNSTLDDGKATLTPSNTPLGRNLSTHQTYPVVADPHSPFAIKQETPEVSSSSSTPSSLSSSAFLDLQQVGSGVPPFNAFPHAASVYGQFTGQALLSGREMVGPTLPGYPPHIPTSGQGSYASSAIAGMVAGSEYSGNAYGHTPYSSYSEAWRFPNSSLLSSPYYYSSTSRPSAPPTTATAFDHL
T3 sequence (P49327 whole entry): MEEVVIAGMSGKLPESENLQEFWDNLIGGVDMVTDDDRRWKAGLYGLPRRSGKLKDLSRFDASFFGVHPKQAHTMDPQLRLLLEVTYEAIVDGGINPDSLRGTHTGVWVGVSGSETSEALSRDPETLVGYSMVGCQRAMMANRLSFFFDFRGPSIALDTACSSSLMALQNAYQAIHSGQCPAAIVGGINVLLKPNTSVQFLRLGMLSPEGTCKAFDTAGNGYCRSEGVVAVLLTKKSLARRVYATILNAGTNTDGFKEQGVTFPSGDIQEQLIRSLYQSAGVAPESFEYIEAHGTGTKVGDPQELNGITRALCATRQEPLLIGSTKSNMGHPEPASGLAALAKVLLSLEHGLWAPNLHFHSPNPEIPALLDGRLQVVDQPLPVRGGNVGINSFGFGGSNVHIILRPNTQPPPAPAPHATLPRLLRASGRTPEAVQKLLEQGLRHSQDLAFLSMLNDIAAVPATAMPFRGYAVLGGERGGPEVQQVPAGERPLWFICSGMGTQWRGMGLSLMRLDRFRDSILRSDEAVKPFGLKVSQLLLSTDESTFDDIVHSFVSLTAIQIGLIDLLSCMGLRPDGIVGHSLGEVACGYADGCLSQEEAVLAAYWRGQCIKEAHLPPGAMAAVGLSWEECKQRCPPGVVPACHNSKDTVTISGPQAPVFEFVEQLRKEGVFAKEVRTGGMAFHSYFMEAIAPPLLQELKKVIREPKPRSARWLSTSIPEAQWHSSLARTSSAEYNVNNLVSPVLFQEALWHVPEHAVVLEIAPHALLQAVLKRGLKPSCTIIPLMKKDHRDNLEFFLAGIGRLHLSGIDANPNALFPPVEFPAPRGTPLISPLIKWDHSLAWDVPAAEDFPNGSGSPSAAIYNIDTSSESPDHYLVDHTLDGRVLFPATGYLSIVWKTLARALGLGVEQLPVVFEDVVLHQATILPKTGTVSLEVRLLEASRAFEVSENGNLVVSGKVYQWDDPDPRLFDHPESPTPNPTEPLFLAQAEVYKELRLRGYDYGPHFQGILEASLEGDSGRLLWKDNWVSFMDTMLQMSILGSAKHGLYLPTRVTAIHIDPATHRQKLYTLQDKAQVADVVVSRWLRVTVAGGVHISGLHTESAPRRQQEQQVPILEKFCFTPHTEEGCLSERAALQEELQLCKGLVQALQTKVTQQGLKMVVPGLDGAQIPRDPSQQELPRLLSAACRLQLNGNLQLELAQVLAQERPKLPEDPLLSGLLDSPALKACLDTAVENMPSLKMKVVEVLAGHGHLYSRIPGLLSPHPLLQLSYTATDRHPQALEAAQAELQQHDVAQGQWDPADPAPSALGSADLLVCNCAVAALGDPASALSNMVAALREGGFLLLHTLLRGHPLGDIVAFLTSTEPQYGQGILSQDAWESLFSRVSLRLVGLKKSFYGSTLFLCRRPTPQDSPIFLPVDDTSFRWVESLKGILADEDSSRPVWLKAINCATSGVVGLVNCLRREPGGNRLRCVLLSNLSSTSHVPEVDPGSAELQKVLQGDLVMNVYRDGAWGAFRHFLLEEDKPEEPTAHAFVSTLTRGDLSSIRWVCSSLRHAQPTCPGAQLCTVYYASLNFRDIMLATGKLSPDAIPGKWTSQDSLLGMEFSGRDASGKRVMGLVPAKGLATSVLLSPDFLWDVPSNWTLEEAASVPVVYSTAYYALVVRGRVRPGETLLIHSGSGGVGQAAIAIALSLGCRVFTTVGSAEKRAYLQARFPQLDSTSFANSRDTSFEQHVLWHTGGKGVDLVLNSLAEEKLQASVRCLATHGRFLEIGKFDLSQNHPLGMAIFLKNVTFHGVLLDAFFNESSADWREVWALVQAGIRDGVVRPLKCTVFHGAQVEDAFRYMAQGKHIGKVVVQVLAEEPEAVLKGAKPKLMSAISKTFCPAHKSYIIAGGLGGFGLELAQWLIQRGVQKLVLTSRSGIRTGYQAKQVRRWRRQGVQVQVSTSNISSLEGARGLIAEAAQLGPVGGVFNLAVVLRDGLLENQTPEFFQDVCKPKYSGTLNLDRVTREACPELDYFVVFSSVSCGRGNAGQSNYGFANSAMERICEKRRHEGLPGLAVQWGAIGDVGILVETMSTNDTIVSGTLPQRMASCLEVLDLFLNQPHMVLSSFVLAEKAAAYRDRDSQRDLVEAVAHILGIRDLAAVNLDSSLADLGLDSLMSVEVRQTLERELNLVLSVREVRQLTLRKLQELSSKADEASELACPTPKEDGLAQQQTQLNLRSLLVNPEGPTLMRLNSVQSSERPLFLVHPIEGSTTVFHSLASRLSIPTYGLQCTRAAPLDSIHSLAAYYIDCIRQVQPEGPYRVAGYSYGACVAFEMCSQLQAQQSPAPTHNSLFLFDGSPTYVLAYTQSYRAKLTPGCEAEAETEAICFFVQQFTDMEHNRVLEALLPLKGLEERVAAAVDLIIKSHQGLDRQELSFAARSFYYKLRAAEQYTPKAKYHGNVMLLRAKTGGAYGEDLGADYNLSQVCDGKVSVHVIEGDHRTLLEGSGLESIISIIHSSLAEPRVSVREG
Chain of DNA dC->dU-editing enzyme APOBEC-3G (Q9HC16 whole entry): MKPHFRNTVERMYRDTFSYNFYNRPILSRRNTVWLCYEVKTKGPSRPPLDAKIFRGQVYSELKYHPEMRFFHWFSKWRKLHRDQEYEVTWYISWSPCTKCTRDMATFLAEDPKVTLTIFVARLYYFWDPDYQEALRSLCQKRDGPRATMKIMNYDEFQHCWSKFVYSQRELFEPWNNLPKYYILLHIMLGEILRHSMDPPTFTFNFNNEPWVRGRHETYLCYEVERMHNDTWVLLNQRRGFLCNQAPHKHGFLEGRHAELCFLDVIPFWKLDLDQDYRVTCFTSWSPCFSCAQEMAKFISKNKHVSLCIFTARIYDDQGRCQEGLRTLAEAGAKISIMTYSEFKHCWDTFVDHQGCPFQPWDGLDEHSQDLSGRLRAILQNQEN

SMILES: Cn1c(SCc2ccccc2Cl)nc2ccccc21
- AC50 (HeLa): 75 µM (active)

SMILES: COc1cc(SC)ccc1C(=O)N1CCN(c2ccccc2)CC1
- IC50 [1]: < 0.4 µM (not active)

SMILES: Cc1ccc(SCC2=NN(c3nc(C)cc(C)n3)C(=O)C2)cc1
- IC50 [2]: 10.5 µM (active)

SMILES: CC(C)OC(=O)Cn1cnc2ccc(Br)cc2c1=O
- IC50 [1]: 24.1 µM (not active)

SMILES: COCCN1C(=O)c2oc3ccccc3c(=O)c2C1c1ccc(OC)c(OC)c1 (stereo not given)
- IC50 [3]: 5.26 µM (active)

SMILES: COc1ccc(NC(C)=O)cc1S(=O)(=O)Nc1ccccc1C(=O)NCCc1ccccc1
- EC50 [4]: 0.519 µM (active)
- EC50 (H4): 50.7 µM (active)
- AC50 (HeLa): 230 µM (active)

SMILES: CCOC(=O)c1c(C)oc2c1c(C(c1ccncc1)N1CCOCC1)c(O)c1ccccc12 (stereo not given)
- IC50 [1]: 1.16 µM (active)

SMILES: COc1ccc(N2C(=O)CC(Sc3n[nH]c(-c4ccc(C)cc4)n3)C2=O)cc1 (stereo not given)
- IC50 [5]: 21.2 µM (active)

SMILES: Cc1cc(Cl)ccc1NC(=O)COC(=O)c1cc([N+](=O)[O-])ccc1N1CCOCC1
- IC50 (Fatty acid synthase [6]): 2.55 µM (active)
- IC50 (Fatty acid synthase [7]): 2.13 µM (active)

SMILES: CC1(C(=O)NS(=O)(=O)c2ccc(C#N)cc2)CCN1C(=O)Cc1ccc(Cl)cc1Cl (stereo not given)
- IC50 (Fatty acid synthase [6]): 10.1 µM (active)
- IC50 (Fatty acid synthase [7]): 5.77 µM (active)

SMILES: CN1c2ccc(-c3cccc(F)c3)cc2[C@@H]2[C@@H](CCN2C(=O)Cc2ccccc2)[C@@H]1CO
- AC50 (Paired box protein Pax-8): 10.2 µM (active)
- AC50 [8]: > 70 µM (inactive)

SMILES: C[C@@H]1CN([C@@H](C)CO)C(=O)c2cc(NS(=O)(=O)c3ccc(F)cc3)ccc2O[C@@H]1CN(C)Cc1ccc(C(F)(F)F)cc1
- AC50 (Paired box protein Pax-8): 15.3 µM (active)
- AC50 [8]: 49.5 µM (active)

SMILES: COc1ccc(-c2ccc3c(c2)[C@@H]2[C@@H](CCN2C(=O)C2CCCC2)[C@H](CO)N3C)cc1
- AC50 (Paired box protein Pax-8): 14.2 µM (active)
- AC50 [8]: > 70 µM (inactive)

SMILES: CCCNC(=O)Nc1ccc2c(c1)C(=O)N(C)[C@@H]1CC[C@@H](CC(=O)NCC3CCCCC3)O[C@H]1CO2
- AC50 [9]: 2.28 µM (active)

SMILES: CCC(=O)N1[C@H](CN(C)C(C)=O)[C@H](c2ccc(-c3cccnc3)cc2)[C@@H]1CO
- AC50 [9]: 0.561 µM (active)

SMILES: O=C(N/N=C/C1CC=CCC1)c1cc(-c2cccnc2)nc2ccccc12 (stereo not given)
- IC50 [2]: 15.1 µM (active)

SMILES: CSc1ccc2c(c1)C(N1CCN(C)CC1)Cc1ccccc1S2 (stereo not given) [METHIOTHEPIN MESYLATE]
- IC50 [10]: > 20 µM (inactive)
- AC50 [11]: 18.7 µM (active)
